# Target: T1, human PAH with the R408W mutation (Homo sapiens, UniProt P00439, R408W)
# T1 construct: expressed in transfected cells
# T1 sequence (P00439 1-452 R408W): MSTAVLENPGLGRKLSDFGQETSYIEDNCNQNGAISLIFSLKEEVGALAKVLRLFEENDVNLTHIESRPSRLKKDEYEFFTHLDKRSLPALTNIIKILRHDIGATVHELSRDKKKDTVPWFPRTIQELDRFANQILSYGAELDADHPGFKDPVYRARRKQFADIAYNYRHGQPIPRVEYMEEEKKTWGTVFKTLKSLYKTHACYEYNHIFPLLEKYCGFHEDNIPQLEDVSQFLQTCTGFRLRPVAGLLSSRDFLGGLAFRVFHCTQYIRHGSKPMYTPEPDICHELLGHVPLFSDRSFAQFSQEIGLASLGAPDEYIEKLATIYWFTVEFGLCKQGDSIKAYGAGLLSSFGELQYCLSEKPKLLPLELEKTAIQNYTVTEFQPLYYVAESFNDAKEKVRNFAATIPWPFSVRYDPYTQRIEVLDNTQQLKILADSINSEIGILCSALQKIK
# Assay: Cell Based Phenylalanine Flux Assay;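 further: after compound treatment, cells received sepiapterin plus isotope-labelled Phenylalanine for 4 hours, then labelled Tyrosine in the medium was quantified, 10-point 2-fold dilution series run in duplicate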
# Settings: A375 cells expressing R408W PAH; 24 hrs with compound, then 20 µM sepiapterin and 800 µM 13C9,15N-Phenylalanine for 4 hours; 13C-Tyrosine by LC-MS; average where tested multiple times; read-out: AC50
row,Structure (SMILES),AC50 [nM]
1,Cc1nc(-c2ccccn2)oc1C(=O)N1CCc2[nH]cnc2C1c1cc2ccccn2n1 (centres unmarked),> 5000
2,CC(C)(O)c1nnc(C(=O)N2CCc3[nH]cnc3C2c2cc3cc(F)ccn3n2)o1 (centres unmarked),> 5000
3,"Fc1cccn2nc(C3c4nc[nH]c4CCN3c3nnc(-c4cccnc4)o3)cc12 (single isomer, unassigned)",1000 to 5000
4,"O=C(c1nnc(-c2cc[nH]n2)o1)N1CCc2[nH]cnc2[C@H]1c1cc2ccccn2n1 (single isomer, unassigned)",1000 to 5000
5,"N#Cc1ncoc1C(=O)N1CCc2[nH]cnc2[C@@H]1c1nn2ccccc2c1Br (single isomer, unassigned)",1000 to 5000

# Same assay, conditions: A375 cells expressing human PAH R408W; 24 hrs compound incubation; 13C-Tyrosine by LC-MS; average where tested multiple times; read-out: AC50
row,Structure (SMILES),AC50 [nM]
1,"FC(F)(F)Oc1cccn2nc([C@@H]3c4nc[nH]c4CCN3c3ncccn3)cc12 [Example 2270, (S)-5-(pyrimidin-2-yl)-4-(4-(trifluoromethoxy)pyrazolo[1,5-a]pyridin-2-yl)-4,5,6,7-tetrahydro-1H-imidazo[4,5-c]pyridine]",< 500
2,"c1ccc(N2CCc3[nH]cnc3[C@@H]2c2cc3ccccn3n2)nc1 [Example 1815, (R)-4-(pyrazolo[1,5-a]pyridin-2-yl)-5-(pyridin-2-yl)-4,5,6,7-tetrahydro-1H-imidazo[4,5-c]pyridine]",> 5000

# Same assay, conditions: A375 cells expressing human R408W PAH; 24 hrs compound incubation; 13C-Tyrosine by LC-MS; average where tested multiple times; read-out: AC50
row,Structure (SMILES),AC50 [nM]
1,"Cn1cnc(-c2nnc(C(=O)N3CCc4[nH]cnc4[C@@H]3c3cc4cccc(C(F)(F)F)n4n3)o2)c1 [Example 1033, (R)-(5-(1-methyl-1H-imidazol-4-yl)-1,3,4-oxadiazol-2-yl)(4-(7-(trifluoromethyl)pyrazolo[1,5-a]pyridin-2-yl)-6,7-dihydro-1H-imidazo[4,5-c]pyridin-5(4H)-yl)methanone]",1000 to 5000
2,"CC(C)(C)c1nnc(C(=O)N2CCc3[nH]cnc3[C@H]2c2cc3c(OC(F)(F)F)cccn3n2)o1 [Example 1759, (S)-(5-(tert-butyl)-1,3,4-oxadiazol-2-yl)(4-(4-(trifluoromethoxy)pyrazolo[1,5-a]pyridin-2-yl)-6,7-dihydro-1H-imidazo[4,5-c]pyridin-5(4H)-yl)methanone]",500 to 1000
3,"Cn1nc(C(F)(F)F)nc1C(=O)N1CCc2[nH]cnc2[C@H]1c1cc2c(Cl)cccn2n1 [Example 1052, (S)-(4-(4-chloropyrazolo[1,5-a]pyridin-2-yl)-6,7-dihydro-1H-imidazo[4,5-c]pyridin-5(4H)-yl)(1-methyl-3-(trifluoromethyl)-1H-1,2,4-triazol-5-yl)methanone]",< 500
4,"Cc1cnn(C)c1-c1nnc(C(=O)N2CCc3[nH]cnc3[C@@H]2c2cc3c(C(F)F)cccn3n2)o1 [Example 1569, (R)-(4-(4-(difluoromethyl)pyrazolo[1,5-a]pyridin-2-yl)-6,7-dihydro-1H-imidazo[4,5-c]pyridin-5(4H)-yl)(5-(1,4-dimethyl-1H-pyrazol-5-yl)-1,3,4-oxadiazol-2-yl)methanone]",> 5000
5,"O=C(c1nnc(-c2ncccc2F)o1)N1CCc2[nH]cnc2[C@@H]1c1cc2ccccn2n1 [Example 617, (R)-(5-(3-fluoropyridin-2-yl)-1,3,4-oxadiazol-2-yl)(4-(pyrazolo[1,5-a]pyridin-2-yl)-6,7-dihydro-1H-imidazo[4,5-c]pyridin-5(4H)-yl)methanone]",> 5000
6,"Cc1ncoc1C(=O)N1CCc2[nH]cnc2[C@H]1c1cc2ccccn2n1 [Example 606, (S)-(4-methyloxazol-5-yl)(4-(pyrazolo[1,5-a]pyridin-2-yl)-6,7-dihydro-1H-imidazo[4,5-c]pyridin-5(4H)-yl)methanone]",< 500
7,"O=C(c1ccnn1C(F)(F)F)N1CCc2[nH]cnc2[C@@H]1c1cc2c(F)cccn2n1 [Example 843, (R)-(4-(4-fluoropyrazolo[1,5-a]pyridin-2-yl)-6,7-dihydro-1H-imidazo[4,5-c]pyridin-5(4H)-yl)(1-(trifluoromethyl)-1H-pyrazol-5-yl)methanone]",1000 to 5000
8,"O=C(c1nnc(-c2ncccn2)o1)N1CCc2[nH]cnc2[C@H]1c1cc2c(C(F)F)cccn2n1 [Example 1413, (S)-(4-(4-(difluoromethyl)pyrazolo[1,5-a]pyridin-2-yl)-6,7-dihydro-1H-imidazo[4,5-c]pyridin-5(4H)-yl)(5-(pyrimidin-2-yl)-1,3,4-oxadiazol-2-yl)methanone]",500 to 1000
9,"CC(C)c1nnc(C(=O)N2CCc3[nH]cnc3[C@H]2c2cc3c(C(F)(F)F)cccn3n2)o1 [Example 1486, (S)-(5-isopropyl-1,3,4-oxadiazol-2-yl)(4-(4-(trifluoromethyl)pyrazolo[1,5-a]pyridin-2-yl)-6,7-dihydro-1H-imidazo[4,5-c]pyridin-5(4H)-yl)methanone]",< 500
10,"CCOc1cccc2cc([C@@H]3c4nc[nH]c4CCN3C(=O)c3nnc(C(C)(C)F)o3)nn12 [Example 1242, (S)-(4-(7-ethoxypyrazolo[1,5-a]pyridin-2-yl)-6,7-dihydro-1H-imidazo[4,5-c]pyridin-5(4H)-yl)(5-(2-fluoropropan-2-yl)-1,3,4-oxadiazol-2-yl)methanone]",1000 to 5000
11,"COc1ccc(-c2nnc(C(=O)N3CCc4[nH]cnc4[C@@H]3c3cc4c(C(F)(F)F)cccn4n3)o2)nc1 [Example 933, (R)-(5-(5-methoxypyridin-2-yl)-1,3,4-oxadiazol-2-yl)(4-(4-(trifluoromethyl)pyrazolo[1,5-a]pyridin-2-yl)-6,7-dihydro-1H-imidazo[4,5-c]pyridin-5(4H)-yl)methanone]",> 5000
12,"Cc1c(-c2nnc(C(=O)N3CCc4[nH]cnc4[C@@H]3c3cc4cccc(Cl)n4n3)o2)cnn1C [Example 1209, (R)-(4-(7-chloropyrazolo[1,5-a]pyridin-2-yl)-6,7-dihydro-1H-imidazo[4,5-c]pyridin-5(4H)-yl)(5-(1,5-dimethyl-1H-pyrazol-4-yl)-1,3,4-oxadiazol-2-yl)methanone]",> 5000
13,"O=C(c1nnc(-c2cnn(C(F)F)c2)o1)N1CCc2[nH]cnc2[C@H]1c1cc2c(C(F)(F)F)cccn2n1 [Example 906, (S)-(5-(1-(difluoromethyl)-1H-pyrazol-4-yl)-1,3,4-oxadiazol-2-yl)(4-(4-(trifluoromethyl)pyrazolo[1,5-a]pyridin-2-yl)-6,7-dihydro-1H-imidazo[4,5-c]pyridin-5(4H)-yl)methanone]",< 500
14,"FC(F)c1nnc(N2CCc3[nH]cnc3[C@H]2c2cc3c(C(F)(F)F)cccn3n2)o1 [Example 1735, (S)-2-(difluoromethyl)-5-(4-(4-(trifluoromethyl)pyrazolo[1,5-a]pyridin-2-yl)-6,7-dihydro-1H-imidazo[4,5-c]pyridin-5(4H)-yl)-1,3,4-oxadiazole]",< 500
15,"O=C(c1nnc(-c2ncccc2F)o1)N1CCc2[nH]cnc2[C@@H]1c1cc2c(F)cccn2n1 [Example 790, (R)-(4-(4-fluoropyrazolo[1,5-a]pyridin-2-yl)-6,7-dihydro-1H-imidazo[4,5-c]pyridin-5(4H)-yl)(5-(3-fluoropyridin-2-yl)-1,3,4-oxadiazol-2-yl)methanone]",> 5000
16,"O=C(c1nnc(-c2cnn(C(F)(F)F)c2)o1)N1CCc2[nH]cnc2[C@H]1c1cc2cccc(Cl)n2n1 [Example 1444, (S)-(4-(7-chloropyrazolo[1,5-a]pyridin-2-yl)-6,7-dihydro-1H-imidazo[4,5-c]pyridin-5(4H)-yl)(5-(1-(trifluoromethyl)–1H-pyrazol-4-yl)-1,3,4-oxadiazol-2-yl)methanone]",< 500

# Source: US20230365592A1 (Agios Pharmaceuticals, Inc., priority 2022, published 2023)
